Tests used:
[1] = test system: primary fibroblasts from Mucopolysaccharidosis type IVA patient; assay: Lysosomal cross-sectional area, laser confocal microscopy, MPS IVA fibroblasts; format: cell-based, human; details: Alexa Fluor 488 labelled, added for 48 h; GM00958
Description: FIG. 9: Test of rhHSP70 in non-sphingolipidosis. rhHSP70 labelled with Alexa Fluor 488 (for visualization of uptake) was added for 48 h to primary fibroblasts from Mucopolysaccharidosis type IVA (aka (Morbus) Morquio type IVA) patient (Coriell Cell Repository ID: GM00958). Read-out: lysosomal cross-sectional area (Primary cellular pathology), performed by laser confocal microscopy.

NPC−/− mice [2] = assay: NPC1 in vivo pilot study: rearing analysis
Description: (§1) Eight treated (rHSP70) NPC^−/− versus eight control (PBS only) NPC^−/− controls. Mice were treated IP three times per week with either 10 mg/kg of rHSP70 or vehicle alone (PBS) from 3 weeks of age. Three control and three treated mice were sacrificed at 7 or 9 weeks old (i.e. after 4 or 6 weeks of treatment, respectively). Organs were perfused (PBS), weighed and frozen for biochemical and immunohistochemical analysis.
Rearing analysis was performed only at 9 and 10 weeks of age. Briefly, animals are allowed to acclimatise in an open field box. After 5′, counts are made of the activity of the mice including the number of times the animal rears in the centre of the box without support, or at the edges of the box using the walls for support.

NPDA cells = assay: Volume of the lysosomal compartment in NPDA cells; format: cell-based, Human
From the text: BMP binds ASM with high affinity and stimulates its ability to hydrolyze sphingomyelin to ceramide and phosphorylcholine. […] In order to test whether ASM is responsible for the lysosome stabilizing effect we treated the cells with desipramine, a well characterized pharmacological ASM inhibitor. […] It should be noted that akin to rHsp70, also rASM localized to the lysosomes.
Primary antibodies used included mouse monoclonal antibodies against Hsp70 (2H9; kindly provided by Boris Margulis, Russian Academy of Sciences, St. Petersburg, Russia), glyceraldehyde-3-phosphate dehydrogenase (GAPDH; Biogenesis), BMP (6C4), lysosomal integral membrane protein-1 (H5C6; developed by J. Thomas August and James E. K. Hildreth and obtained from the Developmental Studies Hybridoma Bank developed under the auspices of the NICHD and maintained by The University of Iowa, Department of Biological Sciences, Iowa City, USA). Proteins separated by 10% SDS-PAGE and transferred to a nitrocellulose membrane were detected by using indicated primary antibodies, appropriate peroxidase-conjugated secondary antibodies from Dako, ECL Western blotting reagents (Amersham), and Luminescent Image Reader (LAS-1000Plus, Fujifilm). For immunocytochemistry Alexa […] or Alexa Fluor®-488-conjugated secondary antibodies were used. […] Fluorescence images were taken using a Zeiss Axiovert 100M laser scanning microscope. […]

[3] = test system: primary fibroblasts from Niemann-Pick Disease type A patient; assay: Lysosomal cross-sectional area in NPDA patient fibroblasts; format: cell-based, Human; details: pulse-chase, added at T=0, measured at 24 h, 48 h, 72 h and 1 week; patient id 83/24; effect reversible
Description: FIG. 5: Pulse-Chase experiment. rhHSP70 (recombinant human HSP70) was added to primary fibroblasts from Niemann-Pick Disease type A patient (patient id: 83/24) at T=0, measurements of lysosomal cross-sectional area were performed at 24 h, 48 h, 72 h and 1 week after administration. […] Conclusion: The effect of rhHSP70 is reversible and lasts ca. 1 week.
FIG. 6: Arimoclomol dose-titration experiment. Various concentrations of Arimoclomol (‘Ari’) added for 48 h to primary fibroblasts from Niemann-Pick Disease type A patient (patient id: 83/24). Read-out: lysosomal cross-sectional area.

NPC−/− mice [4] = assay: NPC1 in vivo pilot study: gait analysis; details: 10 mg/kg IP three times per week
Description: as §1
Behavioural experiments were performed from 3 weeks of age, as described previously. Briefly, tremor analysis was performed using an automated tremor monitor (San Diego instruments) Gait analysis was performed by painting front and hind paws with non-toxic paint and allowing the mice to walk over Whatman 3M paper. Paw placement was measured to determine how closely their hind paws superimposed their front paws, the length of the stride and the width of their gait.

U2OS osteosarcoma cells = assay: Endocytic uptake of Alexa Fluor-488-labelled BSA (BSA*); format: cell-based, Human; details: 20 μg/mL BSA* for 24 h with 3000 nM rHsp70 vs BSA* alone
Description: FIG. 4: Hsp70 increases endocytic uptake of other molecules. Panel A: immortalized mouse embryonic fibroblasts (iMEF), either wildtype (WT) or transgenic for Hsp70 (TG) where incubated with 20 μg/mL Alexa Fluor-488-labelled BSA (BSA*) for 24 h. Endocytic uptake was verified by fluorescence microscopy (not shown). Cells where then harvested and analyzed for uptake of BSA*. […] Panel B: U2OS osteosarcoma cells where incubated with 20 μg/mL BSA* for 24 h either with 3000 nM rHsp70 or without as indicated. Endocytic uptake was verified by fluorescence microscopy (not shown). Cells where then harvested and analyzed for uptake of BSA*.

[5] = Liposome 90° light scattering, POPC liposomes; format: binding; details: pH 7.4
From the text: Thus, we investigated the interaction of Hsp70 with palmitoyl-oleoyl-phosphatidylcholine (POPC) large unilamellar vesicles (LUVs) containing various membrane-associated anionic lipids, i.e. palmitoyl-oleoyl-phosphatidylserine (POPS; primarily in plasma membrane), cardiolipin (primarily mitochondrial) and BMP (primarily in late endosomes/lysosomes). Taking into account the increasingly acidic milieu of the endo-lysosomal compartment upon maturation to lysosomes, we compared the protein-lipid interactions in neutral (pH 7.4) and acidic (pH 6.0) conditions. […] As reported earlier for POPS, all negatively charged lipids enhanced the binding of rHsp70 to the liposomes at neutral pH approximately 4-fold irrespective of the charge density on the liposome surface (ranging from −1 to −2).
The tryptophan fluorescence spectra (RFI) and liposome 90° light scattering (RSI) were analyzed in a HEPES buffer (20 mM HEPES, 0.1 mM EDTA, pH 7.4 or 6.0 as indicated) employing LUVs consisting of indicated lipids essentially as described in the art. For the RFI, LUVs were added in 10 μM aliquots and spectra recorded after a 20 min stabilization period. For the RSI, recombinant proteins were added in 0.12 nmol aliquots.

rHsp70: recombinant (human) heat shock protein 70; in some tests labelled with Alexa Fluor 488
lysosomal cross-sectional area (primary cellular pathology) [1]: effectively reverts the lysosomal primary pathology | rearing (NPC−/− mice [2]; after 6 treatment weeks): no difference | successfully completed vs failed rearing events (NPC−/− mice [2]; at 9 weeks, n=5 treated, n=4 control): only control mice failed to complete rearings | volume of the enlarged lysosomal compartment in NPDA cells (NPDA cells): normalize the volume | duration of the effect on lysosomal cross-sectional area [3]: ca. 1 week | gait (front:hind paw placement, stride length, gait width) (NPC−/− mice [4]): no difference | uptake of BSA* (U2OS osteosarcoma cells): significantly higher uptake of BSA* | binding (relative change in 90° light scattering) [5]: very weak binding

Reference: patent US10532085B2, “Methods for increasing intracellular activity of Hsp70” (Orphazyme A/S, priority 2010, dated 2020)
